# Counter-ions that a name gives are not always drawn. Like-named read-outs stand apart in the source and are kept apart here. Where a SMILES comes first, the peptide text is derived from it. The star is where a group is joined. Cbz = O=C(OCc1ccccc1)*
# Target: T1, Human IP6K1 (Homo sapiens, UniProt Q92551)
# T1 construct: GST (N, cleaved yes); made in house; host or cells: C43 E. coli, pGEX-6P-2
# Test: IP6K1 high-throughput screen of the Sigma LOPAC (ADP-Glo Max, single point);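 also: final compound concentration 10µM in 5% DMSO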
# Type: biochemical
# [1] = Sigma LOPAC single-point screen, ADP-Glo Max raw signal per well
# [2] = Sigma LOPAC single-point screen, Z-score from plate average and StDev
# [3] = LOPAC single-point screen, ADP-Glo Max luminescence raw signal per well
# [4] = LOPAC single-point screen, Z-score relative to plate average and StDev
# [5] = LOPAC single-point screen, ADP-Glo Max raw signal per well
# [6] = LOPAC single-point screen, Z-score from raw signal with plate average and StDev
# [7] = LOPAC single-point screen, Z-score from plate average and StDev
# [8] = LOPAC single-point screen, Z-score against plate average and StDev
# T1 sequence (Q92551 whole entry): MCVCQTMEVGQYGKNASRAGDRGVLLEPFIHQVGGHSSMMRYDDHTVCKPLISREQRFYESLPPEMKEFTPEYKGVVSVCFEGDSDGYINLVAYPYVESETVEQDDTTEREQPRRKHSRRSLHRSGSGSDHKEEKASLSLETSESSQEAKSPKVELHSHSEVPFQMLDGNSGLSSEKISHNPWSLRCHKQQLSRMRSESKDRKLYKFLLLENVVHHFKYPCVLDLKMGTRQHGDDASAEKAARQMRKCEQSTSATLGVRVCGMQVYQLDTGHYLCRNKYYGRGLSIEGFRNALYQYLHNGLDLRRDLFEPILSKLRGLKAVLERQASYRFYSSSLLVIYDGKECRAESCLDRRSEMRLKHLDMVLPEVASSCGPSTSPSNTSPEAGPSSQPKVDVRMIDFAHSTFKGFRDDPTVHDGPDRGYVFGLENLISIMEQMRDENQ
compound,measurement,setting,value
CN1CCc2ccccc2Cc2[nH]c3ccccc3c2CC1 [LE 300],Raw Signal,,53844
same,Z-score,,-0.09233
C/C(O)=C(\C#N)C(=O)Nc1cc(Br)ccc1Br [LFM-A13],Raw Signal,[1],58610
same,Z-score,[2],0.7085
"CC(O)C(C)OC(=O)[C@@H]1C[C@@H]2c3cccc4c3c(cn4C(C)C)C[C@H]2N(C)C1.O=C(O)/C=C\C(=O)O (stereo partly shown) [LY-53,857 maleate]",Raw Signal,[1],58270
same,Z-score,[2],0.6514
"CN1C2CCC1CC(NC(=O)c1nn(C)c3ccccc13)C2.O=C(O)/C=C\C(=O)O (stereo not shown) [LY-278,584 maleate]",Raw Signal,[3],49124
same,Z-score,[4],-0.8854
"Cl.O=c1cc(N2CCOCC2)oc2c(-c3ccccc3)cccc12 [LY-294,002 hydrochloride]",Raw Signal,[3],50825
same,Z-score,[4],-0.5996
CC(CCc1ccccc1)NCC(O)c1ccc(O)c(C(N)=O)c1 (stereo not shown) [Labetalol hydrochloride],Raw Signal,[5],53329
same,Z-score,[6],-0.1789
Nc1nnc(-c2cccc(Cl)c2Cl)c(N)n1 [Lamotrigine],Raw Signal,[5],53800
same,Z-score,[6],-0.09973
Cc1c(OCC(F)(F)F)ccnc1C[S+]([O-])c1nc2ccccc2[nH]1 (stereo not shown) [Lansoprazole],Raw Signal,[5],53701
same,Z-score,[6],-0.1164
Cc1oncc1C(=O)Nc1ccc(C(F)(F)F)cc1 [Leflunomide],Raw Signal,[3],65933
same,Z-score,[7],1.939
C=CCN1CC[C@]23CCCC[C@H]2[C@H]1Cc1ccc(O)cc13 [Levallorphan tartrate],Raw Signal,[5],52542
same,Z-score,[6],-0.3111
CC[N+](C)(CC)CC(=O)Nc1c(C)cccc1C.[Cl-] [Lidocaine N-methyl hydrochloride],Raw Signal,[3],51540
same,Z-score,[4],-0.4795
O=C1N(c2ccccc2)c2ccccc2C1(Cc1ccncc1)Cc1ccncc1 [Linopirdine],Raw Signal,[5],55241
same,Z-score,[8],0.1424
[Cl-].[Li+] [Lithium Chloride],Raw Signal,[1],59222
same,Z-score,[2],0.8235
CCn1cc(C(=O)O)c(=O)c2cc(F)c(N3CCNC(C)C3)c(F)c21 (stereo not shown) [Lomefloxacin hydrochloride],Raw Signal,[3],49930
same,Z-score,[4],-0.75
O=C(O)c1nn(Cc2ccc(Cl)cc2Cl)c2ccccc12 [Lonidamine],Raw Signal,[5],56276
same,Z-score,[8],0.3163
CN(C)C(=O)C(CCN1CCC(O)(c2ccc(Cl)cc2)CC1)(c1ccccc1)c1ccccc1 [Loperamide hydrochloride],Raw Signal,[3],51056
same,Z-score,[4],-0.5608
CCOC(=O)N1CCC(=C2c3ccc(Cl)cc3CCc3cccnc32)CC1 [Loratadine],Raw Signal,[3],49648
same,Z-score,[4],-0.7974
CCCCCN(CCCCC)C(=O)C(CCC(=O)O)NC(=O)c1ccc(Cl)c(Cl)c1 (stereo not shown) [Lorglumide sodium],Z-score,[8],0.04041
CN1CCN(C2=Nc3ccccc3Oc3ccc(Cl)cc32)CC1 [Loxapine succinate],Raw Signal,[5],54983
same,Z-score,[8],0.09905
O=c1cc(-c2ccc(O)c(O)c2)oc2cc(O)cc(O)c12 [Luteolin],Raw Signal,[3],50800
same,Z-score,[4],-0.6038
"O=C(O)/C(=C/c1c(C(=O)O)[nH]c2cc(Cl)cc(Cl)c12)c1ccccc1 [MDL 105,519]",Z-score,,0.03839
CC(C)[C@H](NC(=O)OCc1ccccc1)C(=O)N[C@H](C=O)Cc1ccccc1 [MDL 28170] (Cbz-Val-Phe-aldehyde),Raw Signal,[3],65838
same,Z-score,[7],1.923
CC[N+](CC)(CC)CCOc1ccc(/C=C/c2ccccc2)cc1 [MG 624],Raw Signal,[1],57360
same,Z-score,[2],0.4984
C1CNCCN1.COc1cc(C(O)CO)ccc1O.COc1cc(C(O)CO)ccc1O (stereo not shown) [MHPG piperazine],Raw Signal,[1],58694
same,Z-score,[2],0.7163
COc1cc(C(O)CO)ccc1OS(=O)(=O)[O-].[K+] (stereo not shown) [MHPG sulfate potassium],Raw Signal,[5],56093
same,Z-score,[8],0.1881
CCCCCCCCCCCCCCCCOCC(COCC(F)(F)F)OP(=O)(O)OC (stereo not shown) [MJ33],Raw Signal,[1],57341
same,Z-score,[2],0.4953
CC(C)c1ccc2c(c1)c(SC(C)(C)C)c(CC(C)(C)C(=O)O)n2Cc1ccc(Cl)cc1 [MK-886],Raw Signal,[5],53257
same,Z-score,[6],-0.191
CN1CC[C@]2(CCN3CCc4c(oc5ccccc45)[C@@H]3C2)N(C)C1=O.Cl [MK-912],Raw Signal,[3],51307
same,Z-score,[4],-0.5186
O=S(=O)(c1cccc2c(I)cccc12)N1CCCNCC1 [ML-7],Raw Signal,[3],65221
same,Z-score,[7],1.8193
O=S(=O)(c1cccc2c(Cl)cccc12)N1CCCNCC1 [ML-9],Raw Signal,[5],57828
same,Z-score,[8],-0.01499
CCCOC(=O)c1c(-c2ccccc2)nc(CC)c(C(=O)SCC)c1CCC [MRS 1523],Raw Signal,[5],53053
same,Z-score,[6],-0.2252
CCCn1c(=O)c2[nH]c(-c3ccc(OCC(=O)Nc4ccc(C#N)cc4)cc3)nc2n(CCC)c1=O [MRS 1754],Raw Signal,[3],66198
same,Z-score,[7],1.983
C#CCN1C(C)=C(C(=O)OC)C(c2cccc([N+](=O)[O-])c2)C(C(=O)OCC)=C1C (stereo not shown) [MRS 1845],Raw Signal,[5],54765
same,Z-score,[8],0.06242
Cc1nc(N=Nc2ccc(C(=O)O)cc2)c(COP(=O)(O)O)c(C=O)c1O [MRS 2159],Raw Signal,[3],51283
same,Z-score,[4],-0.5226
CNc1ncnc2c1ncn2[C@H]1C[C@H](OP(=O)(O)O)[C@@H](COP(=O)(O)O)O1 [MRS 2179],Raw Signal,[3],51414
same,Z-score,[4],-0.5006
CNCCCC12CCC(c3ccccc31)c1ccccc12 [Maprotiline hydrochloride],Raw Signal,[5],54786
same,Z-score,[8],0.06595
C[N+](C)(C)CC#CCOC(=O)Nc1cccc(Cl)c1.[Cl-] [McN-A-343],Raw Signal,[5],55957
same,Z-score,[6],-0.3445
"CN(N=O)c1ccc(O)c(O)c1 [Me-3,4-dephostatin]",Raw Signal,[3],32245
same,Z-score,[4],-3.722
CNC1(C)C2CCC(C2)C1(C)C (stereo not shown) [Mecamylamine hydrochloride],Raw Signal,[5],55214
same,Z-score,[8],0.1379
Cc1ccc(Cl)c(Nc2ccccc2C(=O)O)c1Cl [Meclofenamic acid sodium],Raw Signal,[1],59966
same,Z-score,[2],0.9363
COc1ccc2[nH]cc(CCNC(C)=O)c2c1 [Melatonin],Raw Signal,[5],53452
same,Z-score,[6],-0.1582
Cc1cnc(NC(=O)C2=C(O)c3ccccc3S(=O)(=O)N2C)s1 [Meloxicam sodium],Raw Signal,[5],55155
same,Z-score,[8],0.128
N[C@@H](Cc1ccc(N(CCCl)CCCl)cc1)C(=O)O [Melphalan],Raw Signal,[1],56974
same,Z-score,[2],0.4336
CC12CC3CC(C)(C1)CC(N)(C3)C2 [Memantine hydrochloride],Raw Signal,[5],56169
same,Z-score,[8],0.2983
CN1C[C@@H](NS(=O)(=O)N(C)C)C[C@@H]2c3cccc4c3c(cn4C)C[C@H]21 [Mesulergine hydrochloride],Raw Signal,[5],53840
same,Z-score,[6],-0.093
S=C=Nc1cccc(C2(N3CCCCC3)CCCCC2)c1 [Metaphit methanesulfonate],Raw Signal,[1],56894
same,Z-score,[2],0.4201
CC(C)NCC(O)c1cc(O)cc(O)c1.CC(C)NCC(O)c1cc(O)cc(O)c1.O=S(=O)(O)O (stereo not shown) [Metaproterenol hemisulfate],Raw Signal,[5],55094
same,Z-score,[8],0.1177
CN1C[C@H](CNC(=O)OCc2ccccc2)C[C@@H]2c3cccc4c3c(cn4C)C[C@H]21 [Metergoline],Raw Signal,[3],65696
same,Z-score,[7],1.899
CSc1ccc2c(c1)C(N1CCN(C)CC1)Cc1ccccc1S2 (stereo not shown) [Methiothepin mesylate],Raw Signal,[1],58558
same,Z-score,[2],0.6997
COc1ccccc1CNCCCCCCNCCCCCCCCNCCCCCCNCc1ccccc1OC.Cl.Cl.Cl.Cl [Methoctramine tetrahydrochloride],Raw Signal,[1],56889
same,Z-score,[2],0.4193
CN(Cc1cnc2nc(N)nc(N)c2n1)c1ccc(C(=O)N[C@@H](CCC(=O)O)C(=O)O)cc1 [Methotrexate],Raw Signal,[1],60039
same,Z-score,[2],0.3744
COc1ccc(OC)c(C(O)C(C)N)c1 (stereo not shown) [Methoxamine hydrochloride],Raw Signal,[1],57572
same,Z-score,[2],0.5341
COC(=O)c1cc2c(cn1)[nH]c1ccccc12 [Methyl beta-carboline-3-carboxylate],Raw Signal,[5],53830
same,Z-score,[6],-0.2715
CNC(=O)OCC[N+](C)(C)C [Methylcarbamylcholine chloride],Raw Signal,[1],60360
same,Z-score,[2],1.003
CC[C@@H](CO)NC(=O)[C@@H]1C=C2c3cccc4[nH]cc(c34)C[C@H]2N(C)C1 [Methylergonovine maleate],Raw Signal,[1],56663
same,Z-score,[2],0.3813
CC[C@@H](CO)NC(=O)[C@@H]1C=C2c3cccc4c3c(cn4C)C[C@H]2N(C)C1 [Methysergide maleate],Raw Signal,[5],55881
same,Z-score,[8],0.2499
CCN(CC)CCNC(=O)c1cc(Cl)c(N)cc1OC.Cl [Metoclopramide hydrochloride],Raw Signal,[5],53948
same,Z-score,[8],-0.07486
Cc1ccccc1N1C(=O)c2cc(S(N)(=O)=O)c(Cl)cc2NC1C (stereo not shown) [Metolazone],Raw Signal,[5],54501
same,Z-score,[8],0.01806
Cc1ccccc1/C=C/C1=NCCN1 [Metrazoline oxalate],Raw Signal,[3],51543
same,Z-score,[4],-0.479
Cc1ccccc1CNc1ncnc2c1ncn2[C@@H]1O[C@H](CO)[C@@H](O)[C@H]1O [Metrifudil],Raw Signal,[5],54359
same,Z-score,[8],-0.005798
CC[C@H](C)C(=O)O[C@H]1CCC=C2C=C[C@H](C)[C@H](CC[C@@H]3C[C@@H](O)CC(=O)O3)[C@H]21 [Mevastatin],Raw Signal,[3],50064
same,Z-score,[4],-0.7275
Cc1cccc(C)c1OCC(C)N.Cl (stereo not shown) [Mexiletene hydrochloride],Raw Signal,[3],50431
same,Z-score,[4],-0.6658
CN1CCN2c3ccccc3Cc3ccccc3C2C1 (stereo not shown) [Mianserin hydrochloride],Raw Signal,[3],51451
same,Z-score,[4],-0.4944

# Reference: paper PMC5706701, “Development of a homogenous high-throughput assay for inositol hexakisphosphate kinase 1 activity” (PLoS ONE, 2017)
